Measurements from PMC10733197, “Utilization of Rosuvastatin and Endogenous Biomarkers in Evaluating the Impact of Ritlecitinib on BCRP, OATP1B1, and OAT3 Transporter Activity” (Pharmaceutical Research, 2023).

How the values were obtained:
BCRP = target: T1, BCRP (Homo sapiens, UniProt Q9UNQ0); test: BCRP inhibition in BCRP-expressing membrane vesicles with rosuvastatin as substrate; type: biochemical; conditions: for [I]2/IC50 ratio (G-value): ritlecitinib 200 mg, cutoff = 10
T1 sequence (Q9UNQ0 1-655): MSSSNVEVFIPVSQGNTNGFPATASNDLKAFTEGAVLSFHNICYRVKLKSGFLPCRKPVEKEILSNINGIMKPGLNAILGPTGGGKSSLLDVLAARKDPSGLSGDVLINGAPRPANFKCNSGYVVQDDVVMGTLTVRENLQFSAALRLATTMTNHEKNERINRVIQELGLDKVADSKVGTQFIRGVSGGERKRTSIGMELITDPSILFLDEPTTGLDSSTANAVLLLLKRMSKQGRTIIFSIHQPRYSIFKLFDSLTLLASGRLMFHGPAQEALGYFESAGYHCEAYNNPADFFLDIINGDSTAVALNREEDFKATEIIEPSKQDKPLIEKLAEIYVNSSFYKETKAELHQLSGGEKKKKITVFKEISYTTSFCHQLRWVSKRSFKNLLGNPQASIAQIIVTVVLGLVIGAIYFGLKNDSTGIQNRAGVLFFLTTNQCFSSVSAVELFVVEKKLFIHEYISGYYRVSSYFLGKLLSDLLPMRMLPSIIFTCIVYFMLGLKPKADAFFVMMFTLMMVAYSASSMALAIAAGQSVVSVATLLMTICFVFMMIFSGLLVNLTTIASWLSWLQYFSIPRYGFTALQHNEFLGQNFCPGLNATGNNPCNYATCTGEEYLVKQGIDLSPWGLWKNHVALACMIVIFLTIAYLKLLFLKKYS
Experimental: As described previously, BCRP inhibition by ritlecitinib was measured using BCRP-expressing membrane vesicles with non-labeled rosuvastatin as substrate.
(§1) In all cases, ritlecitinib (0.018 to 1000 µM) and metabolite M2 (0.018 to 300 µM) was tested over a wide range of final concentrations dissolved in dimethyl sulfoxide (the final concentration of dimethyl sulfoxide in the assays was 1% v/v). For each transporter, the IC50 was estimated using a four-parameter logistic equation (Eq. 1) using GraphPad Prism software (GraphPad Software Inc, La Jolla, CA).1 %UptakeActivity=Bottom+(Top-Bottom)/1+10^(LogIC50-inhib*HillSlope)

OATP1B3 = target: T2, OATP1B3 (Homo sapiens, UniProt Q9NPD5); test: OATP1B3-mediated CP-I uptake inhibition in transfected HEK293 cells; type: cell-based
T2 construct: expressed in transfected cells; host or cells: HEK293
T2 sequence (Q9NPD5 1-702): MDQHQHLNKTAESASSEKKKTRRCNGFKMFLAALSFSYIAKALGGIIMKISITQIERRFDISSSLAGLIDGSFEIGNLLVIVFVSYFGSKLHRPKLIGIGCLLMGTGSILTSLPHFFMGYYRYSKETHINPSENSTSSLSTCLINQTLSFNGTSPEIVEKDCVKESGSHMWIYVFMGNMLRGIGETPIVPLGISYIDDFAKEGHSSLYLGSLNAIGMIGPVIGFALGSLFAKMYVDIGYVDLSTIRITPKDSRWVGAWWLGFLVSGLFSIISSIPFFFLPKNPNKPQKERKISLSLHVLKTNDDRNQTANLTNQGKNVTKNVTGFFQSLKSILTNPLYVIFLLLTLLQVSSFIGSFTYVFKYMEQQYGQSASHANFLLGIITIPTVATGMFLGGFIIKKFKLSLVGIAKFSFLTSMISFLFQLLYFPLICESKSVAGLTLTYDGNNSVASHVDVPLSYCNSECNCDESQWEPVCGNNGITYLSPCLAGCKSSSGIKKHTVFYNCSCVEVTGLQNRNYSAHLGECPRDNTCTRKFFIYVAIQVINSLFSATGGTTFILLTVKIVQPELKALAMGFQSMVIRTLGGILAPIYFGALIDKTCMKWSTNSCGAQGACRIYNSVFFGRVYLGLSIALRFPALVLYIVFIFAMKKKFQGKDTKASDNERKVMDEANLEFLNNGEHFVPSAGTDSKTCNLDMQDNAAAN
Experimental: Sources of human embryonic kidney (HEK) 293 cells expressing individual transfected human solute carriers (SLC), test substrates, and cell culture reagents, as well as detailed cell culture methods, incubations, and sample processing, have been described previously. SLC included hepatic OATP1B1, OATP1B3, and renal OAT1 and OAT3. […] Likewise, the uptake of non-labeled rosuvastatin (Biosynth, San Diego, CA) at 0.3—0.5 µM was determined for OATP1B1 and OATP1B3 at 1—3 min, and CP-I (Frontier Specialty Chemicals, Logan, UT) at 0.1 µM was determined for OATP1B1 and OATP1B3 at 10 min [14].
as §1
Uptake of CP-I was determined by analysis of the in vitro assay samples using an optimized LC-high resolution mass spectrometry (HRMS) method. In brief, dried samples were reconstituted in 150 µL of 0.1% formic acid and analyzed by LC-HRMS. Analyte separation and detection was achieved using a Shimadzu Nexera high performance LC system (Shimazdu Scientific, MA, USA) coupled to a Sciex API-6600 Q-TOF (time of flight) mass spectrometer with a Turbo IonDrive source (Sciex Corporation, MA, USA). Chromatographic separation was achieved using a Waters Acquity BEH C18 1.7µ 2.1 mm x 100 mm column and a binary mobile phase system consisting of 0.1% v/v formic acid and 0.1% v/v formic acid in acetonitrile, as mobile phase A and B, respectively. The column temperature was held at 60 °C and the flow rate was 0.55 mL/minute. The gradient program had initial conditions of 5% B which was held for 0.9 min, followed by a linear ramp to 95% B over 5.1 min, a hold for 1.0 min, and a return to starting conditions over 0.1 min with re-equilibration for 0.9 min (total run time of 8.0 min). Analyte detection was achieved using an API-6600 Q T-OF mass spectrometer with electrospray ionization (ESI). The mass spectrometer was operated in both TOF-MS and TOF-MS/MS mode with data collected over a 60 to 670 dalton mass range. TOF-MS/MS data were collected in the high-resolution mode. Quantification of CP-I levels was assessed using targeted TOF-MS/MS data with accumulation times of 150 and 35 ms, respectively, for CP-I and the internal standard (ISTD) verapamil. Data were processed using the MultiQuant software package using the targeted mass-to-charge transitions of 328.1 to 268.1201 ± 0.02 daltons and 238.1094 ± 0.02 daltons (summed ions) for CP-I, and 455.2 to 165.0907 ± 0.02 daltons for the ISTD (verapamil), to generate analyte/ISTD area ratios.

[1] = parameters: method as in data not published; conditions: ref data not published, cited from earlier work
CYP1A2 = conditions: cited from earlier work

C=CC(=O)N1C[C@H](Nc2ncnc3[nH]ccc23)CC[C@@H]1C [Ritlecitinib, ritlecitinib]
Triggers Drug Interaction Cutoff (BCRP; [I]2/IC50 cutoff = 10): Yes
IC50 (BCRP; intestinal BCRP, RSV 0.2 µM as substrate, membrane vesicles, mean ± SD, n = 3): 27 ± 2 µM
[I]2/IC50 ratio (G-value) (BCRP): 104
[I]2/IC50 ratio (G-value) (BCRP; listed as ritlecitinib): ~ 100
Triggers Drug Interaction Cutoff (OATP1B3; OATP1B3 (CP-I)): No
R-value (OATP1B3; OATP1B3 (CP-I), 1 + (Imax,inlet,u/IC50), cutoff 1.1 (FDA), 1.04 (EMA)): < 1.03
Fraction Inhibited (OATP1B3; OATP1B3 (CP-I), Imax,inlet,u/(Imax,inlet,u + IC50) (Eq. 1)): < 0.03
IC50 (OATP1B3; hepatic OATP1B3, CP-I 0.1 µM as substrate, 10 min, HEK293): > 1000 µM
inhibition at 10 min, 1000 µM (OATP1B3; human, HEK293 cells transfected with OATP1B3, probe coproporphyrin I (CP-I), 0.1 µM, OATP1B3 (CP-I), 1000 µM, read-out: % inhibition at the highest concentration tested): 23%
steady-state accumulation ratio of AUC ([1]; 200 mg QD regimen, FIH study): 1.8
half-life (arithmetic mean) ([1]; 200 mg single dose, first-in-human study): 1.75 h
steady-state of PK reached at ([1]; QD regimens, FIH study): 4 days
inhibition of CYP1A2 (CYP1A2; classification in words): moderate inhibitor
contribution of CYP1A2 pathway to metabolism of ritlecitinib (CYP1A2; ref data not published): < 25%
